Converted amounts (≈) assume the structure as drawn. Like-named read-outs stand apart in the source and are kept apart here.
Legend:
physchem = type: physicochemical
Excerpt: (§1) A 2% fruit juice based non-carbonated beverage of pH 3.4 and about 12 Brix was formed by combining the following ingredients.
(§2) The preparation of beverage was divided into two aliquots.

[1] = test system: Byssochlamys fulva ATCC 10099; assay: 16 week MIC of un-complexed Pimaricin in 2% juice beverage, mold spores; type: cell-based; details: Paecilomyces fulvus, ATCC10099; beverage pH 3.4, 25° C., 20 spores/ml, spores from Potato Dextrose 25 °C; read-out: 16 week incubation MIC
[2] = test system: Aspergillus niger isolate of Pepsi; assay: as above; type: cell-based; details: beverage pH 3.4, 25° C., 20 spores/ml, spores from Potato Dextrose 25 °C, read-out: 16 week incubation MIC
Excerpt: as §1, §2
(§3) The tubes were sealed in a manner that prohibits moisture evaporation.
(§4) The mold spores employed were obtained from the following organisms. Aspergillus niger isolate of Pepsi; ATCC strain 90900 (Talaromyces spectabilis), ATCC strain 48441 (Pencillium galbrum), ATCC 24088 (Byssochlamys fulva), ATCC 96468 (Neosartorya fischeri) ATCC strain 96463 (Talaromyces flavus) and ATCC strain ATCC 10512 (Talaromyces flavus var. flavus). Each spore type was present at 20 spores per milliliter.

[3] = test system: Neosartorya fischeri ATCC 96468; assay: as above; type: cell-based; details: Aspergillus fischeri, ATCC96468; beverage pH 3.4, 25° C., 20 spores/ml, spores from Potato Dextrose 25 °C; read-out: 16 week incubation MIC
Excerpt: as §1, §2, §3, §4

[4] = test system: Penicillium glabrum ATCC 48441; assay: as above; type: cell-based; details: ATCC48441, beverage pH 3.4, 25° C., 20 spores/ml, spores from Potato Dextrose 25 °C, read-out: 16 week incubation MIC
Excerpt: as §1, §2, §3, §4

[5] = test system: Talaromyces flavus var flavus ATCC 10512; assay: as above; type: cell-based; details: ATCC10512, beverage pH 3.4, 25° C., 20 spores/ml, spores from Potato Dextrose 25 °C, read-out: 16 week incubation MIC
Excerpt: as §1, §2, §3, §4

[6] = test system: Talaromyces spectabilis ATCC 90900; assay: as above; type: cell-based; details: Paecilomyces variotii, ATCC90900; beverage pH 3.4, 25° C., 20 spores/ml, spores from Potato Dextrose 25 °C; read-out: 16 week incubation MIC
Excerpt: as §1, §2, §3, §4

[7] = test system: Tataromyces flavus ATCC 96463; assay: as above; type: cell-based; details: Talaromyces flavus, ATCC96463; beverage pH 3.4, 25° C., 20 spores/ml, spores from Potato Dextrose 25 °C; read-out: 16 week incubation MIC
Excerpt: as §1, §2, §3, §4

[8] = test system: Brettanomyces Pepsi Isolate; assay: Growth inhibitory effect of Pimaricin, beverage medium containing 5% DMSO; type: cell-based; details: 2688 h, 5% DMSO beverage pH 3.4, 25° C., PDA, read-out: Observed MIC (16 week)
Excerpt: as §1, §2
(§5) The second aliquot of beverage is identical to the first aliquot except for the presence of pimaricin. It also contains 5% DMSO. […] The tubes were sealed in a manner that prohibits moisture evaporation.
(§6) Yeast employed in the study are Zygosaccharomyces bisporus (ATCC 52407) Zygosaccharomyces bailii (ATCC 60484), Saccharomyces cerevisiae (Pepsi Isolate Y99), Brettanomyces (Pepsi Isolate Chemy 7UP), and Zygosaccharomyces (Pepsi Isolate Y2).
(§7) The mold spores employed were obtained from the following organisms Paecilomyces variotii (Pepsi isolate D16), Penicillium camembertii (Pepsi isolate M3), (Talaromyces flavus var. flavus (ATCC 10512), Byssochlamys nieva (ATCC 36614), and Byssochlamys fulva ATCC 10099). Each spore type was present initially at 20 spores per milliliter of product. Spores for a couple of strains of mold (such as Byssochlamys nieva) were developed at both 25° C. on Potato Dextrose and 30° C. on Malt Extract in order to ensure some variation in the ratio of asci (ascospores) to conidiospores.

[9] = test system: Byssochlamys fulva ATCC 10099; assay: as above; type: cell-based; details: Paecilomyces fulvus, ATCC10099, pH 3.4, 5% DMSO beverage pH 3.4, 25° C., read-out: Observed MIC (16 week)
Excerpt: as §1, §2, §5, §6, §7

[10] = test system: Byssochlamys nieva ATCC 36614; assay: as above; type: cell-based; details: 2688 h; 5% DMSO beverage pH 3.4, 25° C.; spores generated on PDA at 25 °C; read-out: Observed MIC (16 week)
Excerpt: as §1, §2, §5, §6, §7

[11] = test system: Paecilomyces variotii Pepsi Isolate; assay: as above; type: cell-based; details: pH 3.4, 5% DMSO beverage pH 3.4, 25° C., read-out: Observed MIC (16 week)
Excerpt: as §1, §2, §5, §6, §7

[12] = test system: Penicillium camembertii Pepsi Isolate; assay: as above; type: cell-based; details: pH 3.4, 5% DMSO beverage pH 3.4, 25° C., read-out: Observed MIC (16 week)
Excerpt: as §1, §2, §5, §6, §7

[13] = test system: Saccharomyces cerevisiae Pepsi Isolate; assay: as above; type: cell-based; details: 5% DMSO beverage pH 3.4, 25° C., PDA, read-out: Observed MIC (16 week)
Excerpt: as §1, §2, §5, §6, §7

[14] = test system: Talaromyces flavus var flavus ATCC 10512; assay: as above; type: cell-based; details: spores generated on PDA at 25 °C
Excerpt: as §1, §2, §5, §6, §7

[15] = test system: Zygosaccharomyces bailli ATCC 60484; assay: as above; type: cell-based; details: ATCC60484, 5% DMSO beverage pH 3.4, 25° C., PDA, read-out: Observed MIC (16 week)
Excerpt: as §1, §2, §5, §6, §7

[16] = test system: Zygosaccharomyces bailli Pepsi Isolate; assay: as above; type: cell-based; details: 5% DMSO beverage pH 3.4, 25° C., PDA, read-out: Observed MIC (16 week)
Excerpt: as §1, §2, §5, §6, §7

[17] = test system: Zygosaccharomyces bisporus ATCC 52407; assay: as above; type: cell-based; details: ATCC52407, 5% DMSO beverage pH 3.4, 25° C., PDA, read-out: Observed MIC (16 week)
Excerpt: as §1, §2, §5, §6, §7

mold fungi = assay: Preservation of beverage product for 16 weeks, Pimaricin stand alone; type: cell-based; details: Pimaricin as the only antimicrobial substance (stand alone)
[18] = 25° C., pH approximately 6.4; cited from earlier work
[19] = spores generated on MEA at 30 °C
[20] = spores generated on PDA at 25 °C

For `C[C@@H]1C/C=C/C=C/C=C/C=C/[C@H](O[C@@H]2O[C@H](C)[C@@H](O)[C@H](N)[C@@H]2O)C[C@@H]2O[C@](O)(C[C@@H](O)C[C@H]3O[C@@H]3/C=C/C(=O)O1)C[C@H](O)[C@H]2C(=O)O` [Pimaricin], the solubility (physchem; 4 °C, pH 3.4, aqueous buffer, thermodynamic from solid, solubility limit in high acid beverage) was 10 µg/mL (≈ 15 µM), the solubility at 24 h (physchem; 25 °C, pH 3.4, aqueous buffer, thermodynamic from solid, solubility limit in high acid beverage) was 20 µg/mL (≈ 30 µM) and the “solubility limit in high acid beverage” value (physchem; 24 h, pH 3.4) was “about 20 mg/L”. For the same compound, the MIC [1] was 16.9 µg/mL, the MIC [2] was 18.4 µg/mL and the MIC [3] was greater than 20 µg/mL. For the same compound, the MIC [4] was 5.7 µg/mL, the MIC [5] was greater than 20 µg/mL and the MIC [6] was 10.3 µg/mL. It also gave an MIC [7] greater than 20 µg/mL, an MIC [8] of 2.5 µg/mL (≈ 3.76 µM) and an MIC [9, 19] of 7.9 µg/mL (≈ 11.9 µM). For the same compound, the MIC [9, 20] was 2 µg/mL (≈ 3 µM), the MIC [10] was 46 µg/mL (≈ 69.1 µM) and the MIC [11, 19] was greater than 72 µg/mL. For the same compound, the MIC [11, 20] was 58.3 µg/mL (≈ 87.6 µM), the MIC [12, 19] was 65 µg/mL (≈ 97.6 µM) and the MIC [12, 20] was 6.4 µg/mL (≈ 9.61 µM). For the same compound, the MIC [13] was 2.5 µg/mL (≈ 3.76 µM), the “Observed MIC (16 week)” value ([14]; 5% DMSO beverage pH 3.4, 25° C.) was greater than 72 ppm and the MIC ([14]; Talaromyces flavus, ATCC10512, pH 3.4, 5% DMSO beverage pH 3.4, 25° C., read-out: Observed MIC (16 week)) was 72 µg/mL (≈ 108 µM). It also gave an MIC [15] of 2.5 µg/mL (≈ 3.76 µM), an MIC [16] of 2.5 µg/mL (≈ 3.76 µM) and an MIC [17] of 2.5 µg/mL (≈ 3.76 µM). For the same compound, the “minimum initial concentration needed to preserve product for 16 weeks” value (mold fungi) was 280 mg Pimaricin per liter and the “solubility in pure water” value [18] was 52 µg/mL (≈ 78.1 µM).
